The values that follow come from publication PMC4786642, “Catch-bond mechanism of the bacterial adhesin FimH” (Nature Communications, 2016).

For experiment [1], the target named is T1, FimHL^K12 (Escherichia coli, UniProt P08191). As to the kind of experiment: Equilibrium titration of FimHL with GN-FP-4 (fluorescence). In kind it is binding, E. coli strain K12. More on the design: The isolated lectin domains (residues 1–159) of both FimH variants; made in house; host or cells: E. coli HM125 (periplasm). The protocol: (§1) The concentration of GN-FP-4 was kept constant at 1.0 or 2.0 nM and the concentration of FimHL was varied between 0 and 10 nM. The samples were equilibrated overnight, and their fluorescence intensities at 520 nm were recorded for 30 s and averaged. The experimental data were fitted according to equation (2).

Experiment [2] addresses T2, FimHL^F18 (Escherichia coli, UniProt P08191, N91S/S99N/V48A). The description is as above. In kind it is binding, E. coli strain F18. Details: The isolated lectin domains (residues 1–159) of both FimH variants; made in house; host or cells: E. coli HM125 (periplasm), plasmid pfimHL^F18. The method, then: as §1
For experiment [3], the target named is T3, FimH^K12·DsG (Escherichia coli, UniProt P08191).
T3 construct: those of the corresponding full-length FimH·DsG complexes; made in house; host or cells: E. coli HM125 (periplasm); DsG peptide synthetic, from JPT
In kind it is binding, E. coli strain K12. The following applies: for Kd: HM, FimH^K12·DsG. The protocol:
A constant FimH·DsG concentration of 1 or 2 μM was used. […] The fluorescence traces were globally fitted with Dynafit[59] according to a second-order binding and first-order dissociation reaction.

Experiment [4] concerns the target T3, FimH^K12·DsG. In kind it is binding, E. coli strain K12. The following applies: HM, FimH^K12·DsG. The protocol:
(§2) Measurements were performed with a stirred 1 × 0.4-cm quartz cuvette. […] The samples were equilibrated overnight, and their fluorescence intensities were recorded for 30 s and averaged.

Experiment [5] has as its target FimH^K12·DsG. Format: binding, E. coli strain K12. To be noted: HM, FimH variant K12. The method, then: as §2
Experiment [6] deals with T4, FimH^F18·DsG (Escherichia coli, UniProt P08191, N91S/S99N/V48A). The following applies: HM; for Kd: FimH^F18·DsG. The method, then:
as §2

Experiment [7] concerns FimH^F18-Ala188Asp-piliated E. coli. Nature of the experiment: Cell tracking on mannose-BSA-coated surfaces, static conditions. The following applies: in the presence of 200 μM HM; FimH^F18-Ala188Asp-piliated bacteria. In kind it is cell-based. The source says:
(§3) The E. coli KB18 strain[67] was kindly provided by Professor Evgeni Sokurenko and served as host for the generation of recombinant strains. KB18 contains the pPKL114 plasmid, which encodes the whole fim operon with a translational stop linker upstream of the fimH gene. KB18 was co-transformed with the pGB2-24 plasmid, which was isolated from the ELT115 strain and encodes fimH^J96 (kindly provided by Professor Evgeni Sokurenko). Single-nucleotide point mutations were introduced in fimH^J96 using overlap extension PCR following standard molecular techniques to obtain fimH^F18 and fimH^F18-Ala188Asp. The PCR products were cloned into pGB2-24 by the ApaLI and SphI sites, and KB18 was transformed with the resulting plasmid. […]
(§4) Cell tracking was carried out at room temperature under static conditions. […] Time-lapse movies were recorded with a × 20 phase contrast objective using a CMOS digital camera (The Imaging Source Europe, Bremen, Germany) mounted on a Nikon Ti Eclipse inverted microscope and using the NIS Elements Basic Research software (Nikon, Zurich, Switzerland). […] Five to seven independent movies were recorded for each experimental set-up: FimH^F18 or FimH^F18-Ala188Asp on 1M-BSA-coated dishes and FimH^F18 and FimH^F18-Ala188Asp on BSA-coated cell culture dishes. […]

Experiment [8] relates to FimH^F18-piliated E. coli. Described as above. The following applies: in the presence of 200 μM HM; FimH^F18-piliated bacteria. In kind it is cell-based.
Text: as §3, §4

The test system of experiment [9] is E. coli piliated with FimH^F18 or FimH^F18-Ala188Asp. Nature of the experiment: Cell tracking on mannose-BSA-coated surfaces, static conditions (strain not separated). Format: cell-based. The source says:
The E. coli KB18 strain[67] was kindly provided by Professor Evgeni Sokurenko and served as host for the generation of recombinant strains. KB18 contains the pPKL114 plasmid, which encodes the whole fim operon with a translational stop linker upstream of the fimH gene. KB18 was co-transformed with the pGB2-24 plasmid, which was isolated from the ELT115 strain and encodes fimH^J96 (kindly provided by Professor Evgeni Sokurenko). Single-nucleotide point mutations were introduced in fimH^J96 using overlap extension PCR following standard molecular techniques to obtain fimH^F18 and fimH^F18-Ala188Asp. The PCR products were cloned into pGB2-24 by the ApaLI and SphI sites, and KB18 was transformed with the resulting plasmid.
E. coli strains were grown from frozen stocks in LB medium supplemented with antibiotics (100 μg ml^−1 ampicillin and 25 μg ml^−1 chloramphenicol) until late log phase (OD600 of 1.0–1.2) and diluted to an OD600 of 0.01 before movie acquisition.
Cell culture dishes (35 mm, Corning Inc., Corning, NY) were incubated with 50 μl of 50 μg ml^−1 1M-BSA in 0.02 M bicarbonate buffer for 75 min at 37 °C. The dishes were then washed three times and quenched with 0.1% PBS–BSA to remove unbound 1M-BSA and block remaining sites on the plastic surface to prevent nonspecific binding of bacteria. Controls were prepared by treating cell culture dishes with 0.1% PBS–BSA only. The bacterial suspension was added to the cell culture dishes for microscopy studies.
Cell tracking was carried out at room temperature under static conditions. A bacterial suspension of 50 μl in the late logarithmic growth phase was placed onto the cell culture dishes (diluted to OD600 of 0.01), and a cover slide was placed on top. The delay between sample placement and start of the movie acquisition was about 1 min. Time-lapse movies were recorded with a × 20 phase contrast objective using a CMOS digital camera (The Imaging Source Europe, Bremen, Germany) mounted on a Nikon Ti Eclipse inverted microscope and using the NIS Elements Basic Research software (Nikon, Zurich, Switzerland). Phase contrast images in an ∼5-μm-thick surface layer were taken at four to five frames per second over 5 min. The dead time of movie acquisition was ∼1 min. The resulting images were segmented by creating a projection of the average intensities over all frames to remove the background and by subsequent thresholding using the Maximum Entropy method in Fiji[68] to obtain binary images (examples shown in Supplementary Movies 1 and 2). […] Five to seven independent movies were recorded for each experimental set-up: FimH^F18 or FimH^F18-Ala188Asp on 1M-BSA-coated dishes and FimH^F18 and FimH^F18-Ala188Asp on BSA-coated cell culture dishes. […]

Experiment [10] deals with T4, FimH^F18·DsG. To be noted: for Kd: HM, FimH^F18·DsG.
Experiment [11] concerns the target T1, FimHL^K12. To be noted: HM.
Experiment [12] has as its target T2, FimHL^F18. The following applies: HM.
Experiment [13] concerns the target T1, FimHL^K12.
The target in experiment [14] is T2, FimHL^F18.

Like-named read-outs stand apart in the source and are kept apart here.

T1 sequence (P08191 22-180): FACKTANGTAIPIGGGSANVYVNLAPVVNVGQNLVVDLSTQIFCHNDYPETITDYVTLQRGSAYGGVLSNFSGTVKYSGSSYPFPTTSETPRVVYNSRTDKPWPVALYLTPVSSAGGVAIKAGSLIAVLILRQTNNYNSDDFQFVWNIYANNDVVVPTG
T2 sequence (P08191 22-180 V48A/N91S/S99N): as the sequence (P08191 22-180) above, with V27A, N70S, S78N counted along it
T4 sequence (P08191 22-300 V48A/N91S/S99N, other chains not shown): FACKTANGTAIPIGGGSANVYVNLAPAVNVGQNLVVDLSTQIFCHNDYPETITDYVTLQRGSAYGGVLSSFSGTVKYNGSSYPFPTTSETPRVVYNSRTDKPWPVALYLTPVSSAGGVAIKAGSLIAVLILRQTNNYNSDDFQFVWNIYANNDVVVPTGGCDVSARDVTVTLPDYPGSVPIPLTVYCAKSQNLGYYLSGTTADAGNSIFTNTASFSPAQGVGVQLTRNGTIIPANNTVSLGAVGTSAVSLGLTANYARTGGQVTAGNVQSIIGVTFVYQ
T3 sequence (P08191 22-300, other chains not shown): as the sequence (P08191 22-300 V48A/N91S/S99N, other chains not shown) above, with A27V, S70N, N78S counted along it

Turning to `O=C(NCCNC(=S)Nc1ccc2c(c1)C(=O)OC21c2ccc(O)cc2Oc2cc(O)ccc21)c1ccc(-c2ccc(O[C@H]3O[C@H](CO)[C@@H](O)[C@H](O)[C@@H]3O)c(Cl)c2)cc1` [GN-FP-4, 3′-Chloro-N-(2-(3-(3′,6′-dihydroxy-3-oxo-3H-spiro[isobenzofuran-1,9′-xanthen]-5-yl)-thioureido)ethyl)-4′-(α-D-mannopyranosyloxy)-biphenyl-4-carboxamide], the Kd amounted to 70 pM at FimHL^K12 [1] (FimHL^K12, equilibrium fluorescence titration, read-out: Kd); 70 pM on FimHL^K12 [1] (FimHL^K12, pH 7.4, 25 °C, read-out: Kd of GN-FP-4 binding); 0.00018 µM on FimHL^F18 [2]. Besides, the “fold higher affinity compared to HM” value at FimHL^K12 [1] (FimHL^K12 and FimHL^F18) is listed as 16 fold.

For `CCCCCCCO[C@H]1O[C@H](CO)[C@@H](O)[C@H](O)[C@@H]1O` [HM, n-heptyl α-D-mannoside], the “kon (M^−1 s^−1)” value on FimH^K12·DsG [3] (HM binding to FimH^K12·DsG, pH 7.4, 25 °C) was 5.0±0.1 × 10^6 M^−1 s^−1; on FimH^F18·DsG [10] (HM binding to FimH^F18·DsG, pH 7.4, 25 °C) it was 4.9±0.1 × 10^6 M^−1 s^−1; on FimHL^K12 [13] (HM binding to FimHL^K12, pH 7.4, 25 °C, calculated with koff and Kd) it was 1.8±0.6 × 10^5(d) M^−1 s^−1; on FimHL^F18 [14] (HM binding to FimHL^F18, pH 7.4, 25 °C, calculated with koff and Kd) it was 1.2±0.4 × 10^5(d) M^−1 s^−1. Moreover, the “koff (s^−1)” value on FimH^K12·DsG [3] (HM dissociation from FimH^K12·DsG, pH 7.4, 25 °C) is 2.2±0.1 × 10^1 s^−1; on FimH^F18·DsG [10] (HM dissociation from FimH^F18·DsG, pH 7.4, 25 °C) it was 5.8±0.1 × 10^1 s^−1; at FimHL^K12 [13] (HM dissociation from FimHL^K12, pH 7.4, 25 °C), 2.0±0.4 × 10^−4 s^−1; on FimHL^F18 [14] (HM dissociation from FimHL^F18, pH 7.4, 25 °C), 3.5±0.8 × 10^−4 s^−1. Moreover, the Kd on FimH^K12·DsG [3] (pH 7.4, 25 °C, ratio of rate constants, read-out: koff/kon) came out at 4.3 µM; at FimH^K12·DsG [3] (pH 7.4, 25 °C, stopped-flow amplitudes, read-out: Kd (amplitude analysis; M)), 4.2 µM; on FimH^K12·DsG [3] (read-out: Kd (amplitudes of stopped-flow reactions)), 4.2 ± 0.3 µM; at FimH^K12·DsG [4] (equilibrium titration, read-out: equilibrium dissociation constant (Kd)), 3.6 µM; on FimH^K12·DsG [4] (pH 7.4, 25 °C, read-out: Kd (equilibrium titration; M)) it was 3.6 µM; on FimH^F18·DsG [6] (read-out: Kd (equilibrium titration; M), pH 7.4, 25 °C), 9.9 µM. The Kd came out at 9.9 µM on FimH^F18·DsG [6] (read-out: equilibrium dissociation constant (Kd), equilibrium titration); 12 µM on FimH^F18·DsG [10] (read-out: Kd (amplitude analysis; M), pH 7.4, 25 °C, stopped-flow amplitudes); 12 ± 1 µM on FimH^F18·DsG [10] (read-out: Kd (amplitudes of stopped-flow reactions), amplitude analysis); 12 µM at FimH^F18·DsG [10] (read-out: koff/kon, pH 7.4, 25 °C, ratio of rate constants); 0.0011 µM on FimHL^K12 [11] (FimHL^K12, displacement of GN-FP-4); 0.0011 µM at FimHL^K12 [11] (read-out: Kd (equilibrium titration; M), FimHL^K12, pH 7.4, 25 °C, from competition equilibria with GN-FP-4). For the same molecule, the Kd at FimHL^F18 [12] (FimHL^F18, displacement of GN-FP-4) is 0.003 µM; at FimHL^F18 [12] (read-out: Kd (equilibrium titration; M), FimHL^F18, pH 7.4, 25 °C, from competition equilibria with GN-FP-4) it was 0.003 µM. Also, the “Kd (FimH·DsG)/Kd (FimHL)” value at FimH^K12·DsG [5] and at FimH^F18·DsG [6] (FimH variant F18) was 3,300 throughout. In addition, the “mean velocity on 1M-BSA” value is listed as 5.9 μm s^−1 in experiment [7] and 6.5 μm s^−1 in experiment [8]. Further, the “reduction of permanent attachment to 1M-BSA” value in experiment [9] (in the presence of 200 μM HM) is recorded as 85%. Further, the “reduction of transient attachment to 1M-BSA” value in experiment [9] (in the presence of 200 μM HM) was found to be 75%. For the same molecule, in experiment [9] (in the presence of HM), the “transient and permanent attachment to 1M-BSA” value is on record as “significantly reduced”. For the same molecule, in [9] (upon addition of 100 µM HM), the “bacterial velocity on 1M-BSA” value is listed as “increased”.
